Source: US9079853B2, “Isatin compounds, compositions and methods for treatment of degenerative diseases and disorders” (MUSC FOUNDATION FOR RESEARCH DEVELOPMENT, priority 2013, dated 2015)

What was measured:
661W or C6 cells [1] = experiment: MTT assay, protection against calcium-ionophore A23187; assay type: cell-based; conditions: for MTT, % protection: 1 μM A23187, 24 h
Method: The compound 3-(4,5-Dimethylthiazol-2-yl)-2,5-diphenyltetrazolium bromide (MTT) is a tetrazolium ion that is reduced to a blue formazan dye via several families of NAD(P)H-dependent oxidoreductases. Formation of the formazan dye from MTT or other related tetrazolium dyes are commonly used as a viability assay even though, in fact, the assay is a metabolic capacity assay.
In this assay, 661W or C6 cells were maintained in DMEM supplemented with 10% FBS. 100 μL of 70,000 cells/mL cells were seeded into each well of 96 well plates using DMEM supplemented with 5% FBS. Cells were then allowed to grow to confluency for 48 hours. The compounds of the invention were added in 2 μL media and calcium-ionophore A23187 was then added in 1 μL for a final concentration of 1 μM and after 24 h, 20 μL of […] MTT were added to each well and the cells were incubated for another 4 h after which 100 μL of 1% SDS in 0.01M aqueous HCl were added to each well and the plates were incubated overnight. Absorbance was measured at […] (background correction). The 1 μM ionophore A23187 caused about 50% loss in MTT signal at 24 h. Protection was calculated as the increase in absorbance of treatment groups normalized to the vehicle control.

661W or C6 cells [2] = experiment: XF FCCP-uncoupled oxygen consumption rate assay (IBMX challenge); assay type: cell-based; conditions: 24 h; for activity at 0.001 µM: compound 1 nM, 1 h pretreatment, 600 μM IBMX, read-out: XF FCCP OCR (% Ctrl);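 on XF FCCP OCR (% Ctrl): values normalized to the vehicle control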
Method: The XF FCCP-uncoupled oxygen consumption rate assay assesses mitochondrial capacity by measuring cellular respiration. It was shown that the maximum FCCP-uncoupled oxygen consumption rate (OCR) was a good estimate of maximal mitochondrial capacity (Beeson 2010) and that IBMX treatment of 661W or C6 cells for 24 h caused a loss in maximal uncoupled OCR (Perron 2013). Thus, cells were pretreated with the exemplified compounds for 1 h, added 600 μM IBMX and then measured the uncoupled rate after 24 h. In brief, the OCR measurements were performed using a Seahorse Bioscience XF instrument (Seahorse Bioscience, Billerica, Md.), as previously published (Perron 2013). O2 leakage through the plastic sides and bottom of the plate was accounted for using the AKOS algorithm in the XF software package. Cells were plated on 96- or 24-well custom plates designed for use in the XF and grown to confluency in DMEM+5% FBS (48 h). The medium was then replaced with DMEM+1% FBS for 24 h, along with any treatments.

Structure (SMILES): Cc1ccc2c(c1)C(O)(Cc1ncccc1Br)C(=O)N2CCC(C)C (stereo not shown) [Example 1, 3-((3-bromopyridin-2-yl)methyl)-3-hydroxy-1-isopentyl-5-methylindolin-2-one]
- MTT, % protection (661W or C6 cells [1]; compound 1 μM): 12%,

Structure (SMILES): COc1cccnc1CC1(O)C(=O)N(CCc2ccccc2)c2ccc(Cl)cc21 (stereo not shown) [Example 3, 5-chloro-3-hydroxy-3-((3-methoxypyridin-2-yl)methyl)-1-phenethylindolin-2-one]
- MTT, % protection (661W or C6 cells [1]; compound 1 nM): 74.5%,
- activity at 0.001 µM (661W or C6 cells [2]): 74.5%

Structure (SMILES): O=C1N(CCN2CCCCC2)c2ccc(Cl)cc2C1(O)Cc1ccccn1 (stereo not shown) [Example 4, 5-chloro-3-hydroxy-1-(2-(piperidin-1-yl)ethyl)-3-(pyridin-2-ylmethyl)indolin-2-one]
- MTT, % protection (661W or C6 cells [1]; compound 800 pM): 61.5%,
- activity at 0.001 µM (661W or C6 cells [2]): 69%

Structure (SMILES): CCCN1C(=O)C(O)(Cc2ccc(OC)cn2)c2cc(Cl)ccc21 (stereo not shown) [Example 5, 5-chloro-3-hydroxy-3-((5-methoxypyridin-2-yl)methyl)-1-propylindolin-2-one]
- MTT, % protection (661W or C6 cells [1]; compound 1 nM): 39.2%,

Structure (SMILES): CCN1C(=O)C(O)(Cc2ncccc2OC)c2cc(Cl)ccc21 (stereo not shown) [Example 7, 5-chloro-1-ethyl-3-hydroxy-3-((3-methoxypyridin-2-yl)methyl)indolin-2-one]
- MTT, % protection (661W or C6 cells [1]; compound 1 μM): 43.8%,

Structure (SMILES): CCN1C(=O)C(O)(Cc2ncccc2OC)c2cc(C)ccc21 (stereo not shown) [Example 8, 1-ethyl-3-hydroxy-3-((3-methoxypyridin-2-yl)methyl)-5-methylindolin-2-one]
- MTT, % protection (661W or C6 cells [1]; compound 1 nM): 65.9%,

Structure (SMILES): Cc1ccc2c(c1)C(O)(Cc1ccccn1)C(=O)N2CCc1ccccc1 (stereo not shown) [Example 9, 3-hydroxy-5-methyl-1-phenethyl-3-(pyridin-2-ylmethyl)indolin-2-one]
- MTT, % protection (661W or C6 cells [1]; compound 800 pM): 62.5%,

Structure (SMILES): CCN1C(=O)C(O)(Cc2ccccn2)c2cc(Cl)ccc21 (stereo not shown) [Example 10, 5-chloro-1-ethyl-3-hydroxy-3-(pyridin-2-ylmethyl)indolin-2-one]
- MTT, % protection (661W or C6 cells [1]; compound 1 nM): 52.7%,

Structure (SMILES): COc1ccc(CC2(O)C(=O)N(CCc3ccccc3)c3ccc(C)cc32)nc1 (stereo not shown) [Example 11, 3-hydroxy-3-((5-methoxypyridin-2-yl)methyl)-5-methyl-1-phenethylindolin-2-one]
- MTT, % protection (661W or C6 cells [1]; compound 1 μM): 35.7%,

Structure (SMILES): C#Cc1cccc(C(=O)CC2(O)C(=O)N(CCC)c3ccc(Cl)cc32)n1 (stereo not shown) [Example 14, 5-chloro-3-(2-(6-ethynylpyridine-2-yl)-2-oxoethyl)-3-hydroxy-1-propylindolin-2-one]
- MTT, % protection (661W or C6 cells [1]; compound 100 nM): 69.6%,

Structure (SMILES): Cc1ccc2c(c1)C(O)(CC(=O)c1c[nH]c3ccccc13)C(=O)N2CCC(C)C (stereo not shown) [Example 15, 3-(2-(1H-indol-3-yl)-2-oxoethyl)-3-hydroxy-1-isopentyl-5-methylindolin-2-one]
- MTT, % protection (661W or C6 cells [1]; compound 100 nM): 108.5%,

Structure (SMILES): CC(C)CN1C(=O)C(O)(CC(=O)c2ccccn2)c2ccccc21 (stereo not shown) [Example 16, 3-hydroxy-1-isobutyl-3-(2-oxo-2-(pyridin-2-yl)ethyl)indolin-2-one]
- MTT, % protection (661W or C6 cells [1]; compound 100 nM): 78.7%,

Structure (SMILES): COc1cccc(C(=O)CC2(O)C(=O)N(CC(C)C)c3ccc(Cl)cc32)n1 (stereo not shown) [Example 17, 5-chloro-3-hydroxy-1-isobutyl-3-(2-(6-methoxypyridin-2-yl)-2-oxoethyl)indolin-2-one]
- MTT, % protection (661W or C6 cells [1]; compound 100 nM): 111%,

Structure (SMILES): COc1cccc(C(=O)CC2(O)C(=O)N(CCN3CCCCC3)c3ccc(Cl)cc32)n1 (stereo not shown) [Example 18, 5-chloro-3-hydroxy-3-(2-(6-methoxypyridin-2-yl)-2-oxoethyl)-1-(2-(piperidin-1-yl)ethyl)indolin-2-one]
- MTT, % protection (661W or C6 cells [1]; compound 100 nM): 68.8%,

Structure (SMILES): CCN1C(=O)C(O)(CC(=O)c2ccccn2)c2cc(Cl)ccc21 (stereo not shown) [Example 19, 5-chloro-1-ethyl-3-hydroxy-3-(2-oxo-2-(pyridin-2-yl)ethyl)indolin-2-one]
- MTT, % protection (661W or C6 cells [1]; compound 100 nM): 81.8%,

Structure (SMILES): CC(C)CN1C(=O)C(O)(CC(=O)c2c[nH]c3ccccc23)c2ccccc21 (stereo not shown) [Example 20, 3-(2-(1H-indol-3-yl)-2-oxoethyl)-3-hydroxy-1-isobutylindolin-2-one]
- MTT, % protection (661W or C6 cells [1]; compound 100 nM): 59.5%,

Structure (SMILES): CC(C)CCN1C(=O)C(O)(CC(=O)c2c[nH]c3ccccc23)c2ccccc21 (stereo not shown) [Example 21, 3-(2-(1H-indol-3-yl)-2-oxoethyl)-3-hydroxy-1-isopentylindolin-2-one]
- MTT, % protection (661W or C6 cells [1]; compound 100 nM): 82.9%,

Structure (SMILES): Cc1ccc2c(c1)C(O)(CC(=O)c1c[nH]c3ccccc13)C(=O)N2CCCN=[N+]=[N-] (stereo not shown) [Example 27, 3-(2-(1H-indol-3-yl)-2-oxoethyl)-1-(3-azidopropyl)-3-hydroxy-5-methylindolin-2-one]
- MTT, % protection (661W or C6 cells [1]; compound 1 μM): 66%,

Structure (SMILES): COc1cccc(C(=O)CC2(O)C(=O)N(CC(C)C)c3ccc(C)cc32)n1 (stereo not shown) [Example 29, 3-hydroxy-1-isobutyl-3-(2-(6-methoxypyridin-2-yl)-2-oxoethyl)-5-methylindolin-2-one]
- MTT, % protection (661W or C6 cells [1]; compound 100 nM): 98.9%,

Structure (SMILES): CC(C)CN1C(=O)C(O)(CC(=O)c2ccccn2)c2cc(Cl)ccc21 (stereo not shown) [Example 32, 5-chloro-3-hydroxy-1-isobutyl-3-(2-oxo-2-(pyridin-2-yl)ethyl)indolin-2-one]
- MTT, % protection (661W or C6 cells [1]; compound 100 nM): 102%,

Structure (SMILES): CCN1C(=O)C(Cc2cc(OC)c(OC)c(OC)c2)(OC(=O)c2ccccc2)c2cc(C)ccc21 (stereo not shown) [Example 33, 1-ethyl-5-methyl-2-oxo-3-(3,4,5-trimethoxybenzyl)indolin-3-yl benzoate]
- MTT, % protection (661W or C6 cells [1]; compound 100 nM): 50%,

Structure (SMILES): COc1cc(CC2(OC(=O)c3ccccc3)C(=O)N(CC(C)C)c3ccc(C)cc32)cc(OC)c1OC (stereo not shown) [Example 36, 1-isobutyl-5-methyl-2-oxo-3-(3,4,5-trimethoxybenzyl)indolin-3-yl benzoate]
- MTT, % protection (661W or C6 cells [1]; compound 100 nM): 86.8%,

Structure (SMILES): COc1ccc(CC2(OC(=O)c3ccccc3)C(=O)N(CCc3ccccc3)c3ccc(C)cc32)cc1OC (stereo not shown) [Example 44, 3-(3,4-dimethoxybenzyl)-5-methyl-2-oxo-1-phenethylindolin-3-yl benzoate]
- MTT, % protection (661W or C6 cells [1]; compound 1 nM): 72%,

Structure (SMILES): COc1ccc(CC2(OC(=O)c3ccccc3)C(=O)N(CCC(C)C)c3ccccc32)cc1OC (stereo not shown) [Example 45, 3-(3,4-dimethoxybenzyl)-1-isopentyl-2-oxoindolin-3-yl benzoate]
- MTT, % protection (661W or C6 cells [1]; compound 1 nM): 63%,

Structure (SMILES): COc1ccc(CC2(OC(=O)c3ccccc3)C(=O)N(CCC(C)C)c3ccc(C)cc32)cc1OC (stereo not shown) [Example 46, 3-(3,4-dimethoxybenzyl)-1-isopentyl-5-methyl-2-oxoindolin-3-yl benzoate]
- MTT, % protection (661W or C6 cells [1]; compound 1 μM): 82%,

Structure (SMILES): CCCN1C(=O)C(Cc2ccc(OC)c(OC)c2)(OC(=O)c2ccccc2)c2cc(C)ccc21 (stereo not shown) [Example 47, 3-(3,4-dimethoxybenzyl)-5-methyl-2-oxo-1-propylindolin-3-yl benzoate]
- MTT, % protection (661W or C6 cells [1]; compound 1 nM): 21.8%,

Structure (SMILES): COc1cc(CC2(OC(=O)c3ccccc3)C(=O)N(CC(C)C)c3ccccc32)cc(OC)c1OC (stereo not shown) [Example 49, 1-isobutyl-2-oxo-3-(3,4,5-trimethoxybenzyl)indolin-3-yl benzoate]
- MTT, % protection (661W or C6 cells [1]; compound 800 pM): 78.3%,

Structure (SMILES): CCCN1C(=O)C(Cc2ccc(OC)cc2O)(OC(=O)c2ccccc2)c2ccccc21 (stereo not shown) [Example 52, 3-(2-hydroxy-4-methoxybenzyl)-2-oxo-1-propylindolin-3-yl benzoate]
- MTT, % protection (661W or C6 cells [1]; compound 100 nM): 24%,

Structure (SMILES): COc1ccc(O)c(CC2(OC(=O)c3ccccc3)C(=O)N(CC(C)C)c3ccccc32)c1 (stereo not shown) [Example 54, 3-(2-hydroxy-5-methoxybenzyl)-1-isobutyl-2-oxoindolin-3-yl benzoate]
- MTT, % protection (661W or C6 cells [1]; compound 800 pM): 85.8%,

Structure (SMILES): COc1cccc(CC2(OC(=O)c3ccccc3)C(=O)N(CCC(C)C)c3ccc(Cl)cc32)c1O (stereo not shown) [Example 55, 5-chloro-3-(2-hydroxy-3-methoxybenzyl)-1-isopentyl-2-oxoindolin-3-yl benzoate]
- MTT, % protection (661W or C6 cells [1]; compound 1 nM): 67.4%,

Structure (SMILES): CCN1C(=O)C(Cc2ccc(OC)cc2O)(OC(=O)c2ccccc2)c2ccccc21 (stereo not shown) [Example 57, 1-ethyl-3-(2-hydroxy-4-methoxybenzyl)-2-oxoindolin-3-yl benzoate]
- MTT, % protection (661W or C6 cells [1]; compound 800 pM): 71%,

Structure (SMILES): CCN1C(=O)C(Cc2cc(OC)ccc2O)(OC(=O)c2ccccc2)c2cc(C)ccc21 (stereo not shown) [Example 60, 1-ethyl-3-(2-hydroxy-5-methoxybenzyl)-5-methyl-2-oxoindolin-3-yl benzoate]
- MTT, % protection (661W or C6 cells [1]; compound 1 nM): 68.7%,

Structure (SMILES): CCCN1C(=O)C(O)(Cc2cn(C(=O)c3ccccc3)c3ccccc23)c2cc(C)ccc21 (stereo not shown) [Example 64, 3-((1-benzoyl-1H-indol-3-yl)methyl)-3-hydroxy-5-methyl-1-propylindolin-2-one]
- MTT, % protection (661W or C6 cells [1]; compound 100 nM): 51.5%,

Structure (SMILES): CNc1ccc2oc(C[C@H]3O[C@@]4(CC[C@H]3C)O[C@H]([C@H](C)C(=O)c3ccc[nH]3)[C@H](C)C[C@H]4C)nc2c1C(=O)O [Example A23187, reference compound]
- loss in MTT signal (661W or C6 cells [1]; 1 μM ionophore, 24 h): about 50%

Structure (SMILES): CC(C)Cn1c(=O)n(C)c(=O)c2[nH]cnc21 [IBMX, reference compound]
- decrease in the uncoupled rate (OCR) (661W or C6 cells [2]; IBMX treatment alone, 600 μM): ~50%
